Assay results taken from the supplement of paper PMC10307832.

Compound: COc1ccc(-c2ccc3c(N4CCOC[C@@H]4C)nc(N4CCOC[C@@H]4C)nc3n2)cc1CO [AZD8055]
Test: relative viability (nuclei count vs DMSO), 5 days (fraction); higher = more cells survive
How it was run: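 Viability was read as treated-well nuclei divided by vehicle-well nuclei, using the median across plates. Lung cancer cell lines in 1536-well plates were kept overnight at 37 °C, pinned with five √10-spaced library-drug doses, and after 5 days were Hoechst-stained, imaged at 4× and counted in MetaXpress. Plates passed only with control CV below 25% and at least one doubling.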

| Cell Line | relative viability (0.01 µM) | relative viability (0.03162 µM) | relative viability (0.1 µM) | relative viability (0.3162 µM) | relative viability (1 µM) |
| --- | --- | --- | --- | --- | --- |
| 201T | 0.955 | 0.987 | 0.907 | 0.635 | 0.487 |
| A-427 | 1.05 | 0.871 | 0.893 | 0.574 | 0.586 |
| ABC-1 | 0.948 | 1.08 | 0.757 | 0.332 | 0.413 |
| BEN | 0.901 | 0.6 | 0.53 | 0.358 | 0.325 |
| CAL-12T | 1.06 | 0.995 | 0.7 | 0.322 | 0.274 |
| COR-L23 | 1.35 | 0.921 | 0.862 | 0.28 | 0.207 |
| COR-L 105 | 1.04 | 0.947 | 0.64 | 0.378 | 0.435 |
| Calu-6 | 1.13 | 0.991 | 0.835 | 0.621 | 0.449 |
| ChaGo-K-1 | 1.02 | 0.998 | 0.952 | 0.858 | 0.722 |
| EKVX | 1.09 | 1.08 | 0.818 | 0.602 | 0.432 |
| EMC-BAC-2 | 0.992 | 0.784 | 0.698 | 0.356 | 0.336 |
| EPLC-272H | 0.807 | 0.73 | 0.47 | 0.356 | 0.358 |
| H3255 | 1.11 | 0.948 | 0.778 | 0.436 | 0.349 |
| HARA | 1.11 | 1.06 | 0.774 | 0.563 | 0.304 |
| HCC-15 | 1.09 | 1.03 | 0.883 | 0.53 | 0.351 |
| HCC-44 | 0.99 | 1.03 | 0.844 | 0.552 | 0.473 |
| HCC-78 | 1.03 | 0.837 | 0.615 | 0.395 | 0.457 |
| HCC-366 | 1.11 | 0.963 | 0.907 | 0.698 | 0.354 |
| HCC-827 | 1.13 | 1.1 | 1.11 | 0.876 | 0.768 |
| HOP-62 | 1.09 | 0.922 | 1.08 | 0.639 | 0.54 |
| IA-LM | 0.98 | 0.651 | 0.241 | 0.103 | 0.116 |
| LC-2-ad | 1.04 | 1.04 | 0.922 | 0.621 | 0.529 |
| LCLC-97TM1 | 1.04 | 0.822 | 0.453 | 0.246 | 0.205 |
| LCLC-103H | 0.945 | 0.86 | 0.86 | 0.609 | 0.519 |
| LK-2 | 0.84 | 0.641 | 0.508 | 0.24 | 0.195 |
| LOU-NH91 | 0.931 | 0.934 | 0.724 | 0.633 | 0.624 |

| Cell Line | relative viability (0.01 µM) | relative viability (0.03162 µM) | relative viability (0.1 µM) | relative viability (0.3162 µM) | relative viability (1 µM) |
| --- | --- | --- | --- | --- | --- |
| LU99A | 1.07 | 0.54 | 0.461 | 0.261 | 0.253 |
| LXF-289 | 1.07 | 1.05 | 1.01 | 0.909 | 0.768 |
| NCI-H23 | 1.09 | 0.804 | 0.662 | 0.371 | 0.373 |
| NCI-H322M | 0.933 | 0.968 | 0.741 | 0.64 | 0.601 |
| NCI-H358 | 1.03 | 1.15 | 0.855 | 0.323 | 0.263 |
| NCI-H441 | 1.06 | 0.929 | 0.695 | 0.427 | 0.387 |
| NCI-H460 | 1.13 | 0.995 | 0.798 | 0.416 | 0.264 |
| NCI-H520 | 0.904 | 0.441 | 0.373 | 0.19 | 0.178 |
| NCI-H522 | 0.965 | 1 | 0.723 | 0.519 | 0.719 |
| NCI-H596 | 0.953 | 0.762 | 0.683 | 0.469 | 0.406 |
| NCI-H647 | 0.981 | 0.717 | 0.51 | 0.332 | 0.204 |
| NCI-H650 | 0.984 | 0.809 | 0.738 | 0.427 | 0.303 |
| NCI-H661 | 1.03 | 0.992 | 0.842 | 0.521 | 0.537 |
| NCI-H727 | 1.17 | 0.953 | 0.695 | 0.544 | 0.412 |
| NCI-H838 | 1.05 | 0.676 | 0.442 | 0.322 | 0.339 |
| NCI-H1355 | 0.889 | 0.865 | 0.578 | 0.303 | 0.261 |
| NCI-H1395 | 0.869 | 0.648 | 0.739 | 0.488 | 0.427 |
| NCI-H1437 | 1.05 | 1.02 | 0.895 | 0.448 | 0.318 |
| NCI-H1563 | 0.844 | 0.791 | 0.719 | 0.604 | 0.684 |
| NCI-H1648 | 0.642 | 0.745 | 0.542 | 0.271 | 0.326 |
| NCI-H1650 | 0.923 | 1 | 0.802 | 0.498 | 0.419 |
| NCI-H1651 | 1.08 | 0.847 | 0.871 | 0.61 | 0.389 |
| NCI-H1666 | 1.1 | 1.07 | 0.925 | 0.802 | 0.675 |
| NCI-H1703 | 0.822 | 0.715 | 0.634 | 0.265 | 0.332 |
| NCI-H1734 | 1.08 | 0.732 | 0.646 | 0.385 | 0.276 |
| NCI-H1755 | 1.02 | 0.841 | 0.825 | 0.537 | 0.569 |

| Cell Line | relative viability (0.01 µM) | relative viability (0.03162 µM) | relative viability (0.1 µM) | relative viability (0.3162 µM) | relative viability (1 µM) |
| --- | --- | --- | --- | --- | --- |
| NCI-H1792 | 0.951 | 0.612 | 0.325 | 0.171 | 0.216 |
| NCI-H1793 | 0.669 | 0.443 | 0.287 | 0.212 | 0.222 |
| NCI-H1915 | 1.01 | 0.81 | 0.959 | 0.63 | 0.513 |
| NCI-H1944 | 1.01 | 0.786 | 0.673 | 0.335 | 0.316 |
| NCI-H1975 | 1.05 | 0.812 | 0.55 | 0.347 | 0.283 |
| NCI-H1993 | 0.791 | 0.72 | 0.577 | 0.545 | 0.666 |
| NCI-H2009 | 1.03 | 0.918 | 0.924 | 0.501 | 0.344 |
| NCI-H2023 | 0.901 | 0.618 | 0.362 | 0.163 | 0.153 |
| NCI-H2085 | 1 | 0.987 | 0.723 | 0.43 | 0.42 |
| NCI-H2087 | 1.14 | 0.908 | 0.936 | 0.458 | 0.349 |
| NCI-H2126 | 0.973 | 0.926 | 0.743 | 0.515 | 0.418 |
| NCI-H2170 | 1.01 | 0.881 | 0.735 | 0.365 | 0.345 |
| NCI-H2228 | 1.29 | 0.757 | 0.378 | 0.201 | 0.213 |
| NCI-H2342 | 1.19 | 0.881 | 0.735 | 0.476 | 0.572 |
| NCI-H2347 | 1.14 | 0.942 | 0.911 | 0.5 | 0.48 |
| NCI-H2405 | 0.999 | 1 | 0.797 | 0.406 | 0.407 |
| NCI-H3122 | 1.06 | 1.11 | 0.846 | 0.457 | 0.311 |
| PC-3 [JPC-3] | 1.08 | 1.11 | 0.931 | 0.957 | 0.609 |
| PC-14 | 1.23 | 1.09 | 0.715 | 0.286 | 0.178 |
| RERF-LC-KJ | 1.05 | 0.942 | 0.822 | 0.458 | 0.414 |
| SK-LU-1 | 1.05 | 0.82 | 0.628 | 0.388 | 0.366 |
| SK-MES-1 | 0.967 | 0.892 | 0.809 | 0.408 | 0.289 |
| SW 900 | 0.827 | 0.783 | 0.704 | 0.513 | 0.236 |
| SW 1573 | 1.05 | 0.751 | 0.704 | 0.326 | 0.203 |
| UMC-11 | 0.942 | 0.711 | 0.607 | 0.345 | 0.322 |
